Assay type in all cases: in vivo, Female BALB/c mice
Test [1] relates to BLM-Induced Systemic Sclerosis Mouse Model. The test is described as follows: Comparison with other antiplatelet drugs: skin thickening in BLM-induced systemic sclerosis mouse model. The note with it: 0.10 mmol/kg once a day for 28 days; for Skin thickness: oral (gavage) (Sodium Ozagrel: intravenous injection), mean ± SE, n = 8, blank 0.22±0.05, model 0.87±0.15. An excerpt:
(§1) Female BALB/c mice, weighing 18-22 g, were purchased from Beijing Weitonglihua Experimental Animal Technology Co., Ltd. and housed in an SPF environment for 1 week (with free access to drinking water during the feeding period). They were then randomly divided into 9 groups, with 10 mice in each group, namely, blank group, model group, sodium ozagrel group, dipyridamole group, clopidogrel group, cilostazol group, ticagrelor group, aspirin group, and HY-2 group. The back of mice of each group was shaved in an area of 1 cm*1 cm. Except for the blank group which was subcutaneously injected with normal saline, all other groups were subcutaneously injected with BLM 100 µL (0.5 mg/mL) for 28 consecutive days (the injection area was injected at the four corners of the shaved area for the first 4 times, and the center of the shaved area for the 5th time, and this cycle was repeated. The skin changes at the subcutaneous injection site and the weight changes of the mice were observed every week). Each treatment group was respectively given sodium ozagrel, dipyridamole, clopidogrel, cilostazol, ticagrelor, aspirin, and HY-2 30 minutes after the injection of BLM, once a day for 28 consecutive days (the dosage and administration method are shown in Table 1). Table 1 Dosage and administration method
After the last administration, the animals were sacrificed, and the back skin tissue was taken, fixed with 4% paraformaldehyde, dehydrated, paraffin-embedded and sliced. The tissue sections were stained with HE, and the pathological morphological changes of the skin tissue were examined with a microscope and the skin thickening was measured.
The experimental data were processed using GraphPad Prism 7, and the experimental groups were compared using the student t test.

In a further test the test system is thromboxane B2 (TXB2). Kind of test: Serum TXB2 level (ELISA) in BLM-induced systemic sclerosis mouse model. To be noted: 0.10 mmol/kg once a day for 28 days; for TXB2: serum, oral (gavage) (Sodium Ozagrel: intravenous injection), mean ± SE, n = 8, blank 74.19±14.76, model 261.91±10.96.
Excerpt: as §1
(§2) Mouse TXB2 ELISA kit was purchased from Shanghai Jianglai Biological, batch number: 20220715, antibody types: purified mouse TXB2 capture antibody and horseradish peroxidase (HRP)-labeled detection antibody; mouse TGF-β1 ELISA kit was purchased from Shanghai Jianglai Biological, batch number: 20220806, antibody types: purified mouse TGF-β1 capture antibody and horseradish peroxidase (HRP)-labeled detection antibody.
(§3) The kit uses a double-antibody one-step sandwich enzyme-linked immunosorbent assay (ELISA). Serum specimens, standards, and horseradish peroxidase (HRP)-labeled detection antibodies are added sequentially to the coated microwells pre-coated with mouse analyte capture antibodies, followed by incubation and thorough washing. The substrate TMB (3,3',5,5'-tetramethylbenzidine) is used for color development. TMB is converted to be blue under the catalysis of peroxidase (HRP) and then converted to be finally yellow under the action of acid. The depth of color is positively correlated with the content of the analyte in the serum sample. The absorbance (OD value) was measured at a wavelength of 450 nm using a microplate reader to calculate the sample concentration.
(§4) After the last administration, the animals were sacrificed and serum samples were collected. Standard wells were set on the enzyme-labeled coated plate, standard solutions of different concentrations were prepared according to the instructions, and 50uL of standard solutions of different concentrations were added to each standard well. Blank wells and test sample wells were set on the enzyme-labeled coated plate, 40uL of sample diluent was first added to the test sample well, and 20uL of test serum sample was then added. 100uL of enzyme-labeled reagent was added to each well, except the blank well. The plate was sealed with a sealing film and incubated at 37°C for 60 minutes. The sealing film was removed, and after discarding the liquid and spinning dry, each well was filled with washing solution, and stood for 30 seconds, then discarding the washing solution, repeating 5 times and spinning dry. 50uL of color developer A (containing H2O2) was first added into each well, and then 50uL of color developer B (containing substrate TMB) was added, gently shaking to mix, and color developing at 37°C in the dark for 15 minutes. 50uL of stop solution was added to each well to stop the reaction (the blue color immediately turns to yellow). The microplate reader was adjusted to zero with the blank well, and the absorbance OD value of each well was measured in sequence at a wavelength of 450nm. The measurement should be carried out within 15 minutes after adding the stop solution.
Background: ELISA stands for enzyme-linked immunosorbent assay.

Test [2] has as its system transforming growth factor β1 (TGF-β1). The test is described as follows: Serum TGF-β1 level (ELISA) in BLM-induced systemic sclerosis mouse model. The note with it: 0.10 mmol/kg once a day for 28 days; for TGF-β1: serum, oral (gavage) (Sodium Ozagrel: intravenous injection), mean ± SE, n = 8, blank 379.76±120.63, model 913.10±64.73.
Excerpt: as §1, §2, §3, §4

Test [3] has as its system BLM-Induced Systemic Sclerosis Mouse Model. Kind of test: Skin thickening (HE staining) in BLM-induced systemic sclerosis mouse model, dose groups. The note with it: compared with the model group. On the procedure: Female BALB/c mice, weighing 18-22 g, were purchased from Beijing Weitong Lihua Experimental Animal Technology Co., Ltd. and housed in an SPF environment for 1 week (with free access to drinking water during the feeding period). They were then randomly divided into 5 groups, 8 mice in each group, namely, blank group, model group, 15 mg/kg, 30 mg/kg, and 60 mg/kg dosage groups of sodium 4-(2-(1H-imidazol-1-yl)ethoxy)-3-methoxybenzoate (HY-2). The back of each group of mice was shaved in an area of 1 cm*1 cm. Except for the blank group which was subcutaneously injected with normal saline, all other groups were injected with BLM 100 µL (0.5 mg/mL) for 28 consecutive days (the injection area was the four corners of the shaved area for the first 4 injections, and the center of the shaved area for the 5th injection, and this cycle was repeated. The skin changes at the subcutaneous injection site and the weight changes of the mice were observed every week). After the injection of BLM, the treatment group was orally (gavaged) given the corresponding dose of sodium 4-(2-(1H-imidazole-1-yl)ethoxy)-3-methoxybenzoate, once a day, for 28 consecutive days.
After the last administration, the animals were sacrificed, and appropriate skin tissues were taken for HE staining and measurement of skin thickening.

Test [4] has the same test system. Kind of test: Lung histopathology (HE staining) in BLM-induced systemic sclerosis mouse model. To be noted: each dose group (15, 30, 60 mg/kg) oral (gavage) once a day for 28 days, compared with the model group. The protocol:
(§5) Female BALB/c mice, weighing 18-22 g, were purchased from Beijing Weitonglihua Experimental Animal Technology Co., Ltd. and housed in an SPF environment for 1 week (with free access to water during the feeding period). They were then randomly divided into 5 groups, with 8 mice in each group, namely, blank group, model group, HY-2 15 mg/kg, 30 mg/kg, and 60 mg/kg dose groups. The back of each group of mice was shaved in an area of 1 cm*1 cm. Except for the blank group which was subcutaneously injected with normal saline, all other groups were injected with BLM 100 µL (0.5 mg/mL) for 28 consecutive days (the injection area was the four corners of the shaved area for the first 4 injections, and the center of the shaved area for the 5th injection, and this cycle was repeated. The skin changes at the subcutaneous injection site and the weight changes of the mice were observed every week). After the injection of BLM, each dose treatment group was orally (gavage) given the corresponding dose of HY-2 once a day for 28 consecutive days.
After the last administration, the animals were sacrificed, and appropriate lung tissues were taken for HE staining and slide preparation to examine the lung tissue structure and inflammatory cell infiltration.

For test [5] the test system is unchanged. The test is described as follows: Collagen deposition (Masson staining) in skin and lung tissues of BLM-induced systemic sclerosis mouse model. To be noted: each dose group (15, 30, 60 mg/kg) oral (gavage) once a day for 28 days, compared with the model group, P<0.01. On the procedure:
as §5, with “administered” for “given”
After the last administration, the animals were sacrificed, and appropriate skin and lung tissues were taken for Masson staining and slide preparation to examine the collagen deposition in the skin and lung tissues. The percentage of collagen deposition was quantified using Image-Pro® Plus software.

Marks after values point to notes of the source that are not given here.

For `O=C(O)/C=C/c1ccc(Cn2ccnc2)cc1` [Sodium Ozagrel, sodium ozagrel], the Skin thickness in test [1] is 0.82±0.16^aa mm. In the test on thromboxane B2 (TXB2), this compound gave a TXB2 of 196.54 ± 45.30 pg/mL. Also, the TGF-β1 in test [2] is 884.74±33.45^aa pg/mL.
As to `COc1cc(C(=O)[O-])ccc1OCCn1ccnc1.[Na+]` [HY-2, sodium 4-(2-(1H-imidazol-1-yl)ethoxy)-3-methoxybenzoate], the skin thickening result in test [3] (30 mg/kg oral (gavage) once a day for 28 days, P<0.05) was “significantly inhibited”; in test [3] (60 mg/kg oral (gavage) once a day for 28 days, P<0.01), “significantly inhibited”. Further, the “lung tissue structure and inflammatory cell infiltration” value in test [4] was “regular and infiltrated by less inflammatory cells”. Further, the “collagen deposition in the lung tissue” value in test [5] is “significantly reduced”. Moreover, the “collagen deposition in the skin” value in test [5] was “significantly reduced”. The Skin thickness in test [1] is listed as 0.59±0.06 mm. Moreover, the “skin thickness compared with the model group (in words)” value in test [1] (P<0.01) is on record as “significantly decreased”. The “effect on TXB2 in serum (in words)” value with thromboxane B2 (TXB2) (vs model group) is “significantly reduce”. The compound further came in with a TXB2 in the test on thromboxane B2 (TXB2) of 215.00 ± 38.92 pg/mL. The “effect on TGF-β1 in serum (in words)” value in test [2] (vs model group) is reported as “significantly reduce”. This compound showed a TGF-β1 in test [2] of 783.04 ± 53.77 pg/mL.
For the compound `CCCSc1nc(N[C@@H]2C[C@H]2c2ccc(F)c(F)c2)c2nnn([C@@H]3C[C@H](OCCO)[C@@H](O)[C@H]3O)c2n1` [Ticagrelor, ticagrelor], the Skin thickness in test [1] is recorded as 0.74±0.07^aa mm. The compound further registered a TXB2 in the test with thromboxane B2 (TXB2) of 197.76 ± 42.08 pg/mL. The TGF-β1 in test [2] is reported as 847.62±43.73^a pg/mL.
For the compound `O=C1CCc2cc(OCCCCc3nnnn3C3CCCCC3)ccc2N1` [Cilostazol, cilostazol], the Skin thickness in test [1] is given as 0.74±0.11^a mm. Also, the TXB2 with thromboxane B2 (TXB2) is listed as 259.32±7.13^a pg/mL. Further, the TGF-β1 in test [2] is 838.27 ± 65.93 pg/mL.
Taken in the same sequence, the figures for `OCCN(CCO)c1nc(N2CCCCC2)c2nc(N(CCO)CCO)nc(N3CCCCC3)c2n1` [Dipyridamole, dipyridamole] were 0.74 ± 0.12^a mm, 248.84 ± 38.88 pg/mL and 867.56 ± 113.73 pg/mL.
In the case of `COC(=O)[C@H](c1ccccc1Cl)N1CCc2sccc2C1` [Clopidogrel, clopidogrel], the Skin thickness in test [1] is listed as 0.81±0.10^aa mm. The compound also displayed a TXB2 in the test on thromboxane B2 (TXB2) of 208.46 ± 42.87 pg/mL. Moreover, the TGF-β1 in test [2] was determined as 822.62 ± 76.60 pg/mL.
Regarding `CC(=O)Oc1ccccc1C(=O)O` [Aspirin, aspirin], in test [1], the Skin thickness was 0.80±0.09^aa mm. Also, the TXB2 with thromboxane B2 (TXB2) came out at 239.57 ± 13.60 pg/mL. This compound also yielded a TGF-β1 in test [2] of 827.68 ± 77.88 pg/mL.
